According to the kinase profiling compilation of Christmann-Franck et al. (2016):
Several values for one entry are separate records, joined by “and”; a condition that tells them apart may be missing. Equal values may be shown once.

What was measured:
Assay in all cases: radiometric filter-binding kinase assay, Kinase HotSpot
Details in all cases: compound 0.5 µM; ATP 10 µM
ROCK1 (human) = ROCK1 (human) (UniProt Q13464)
MARK1 (human) = MARK1 (human) (UniProt Q9P0L2)
CHEK2 (human) = CHEK2 (human) (UniProt O96017)
SGK2 (human) = SGK2 (human) (UniProt Q9HBY8)
MELK (human) = MELK (human) (UniProt Q14680)
KDR (human) = KDR (human) (UniProt P35968)
RPS6KB2 (human) = RPS6KB2 (human) (UniProt Q9UBS0)
MAPK1 (human) = MAPK1 (human) (UniProt P28482)
ERBB2 (human) = ERBB2 (human) (UniProt P04626)
PRKD2 (human) = PRKD2 (human) (UniProt Q9BZL6)
TEC (human) = TEC (human) (UniProt P42680)
TEC (human), sequence (P42680 whole entry, looked up): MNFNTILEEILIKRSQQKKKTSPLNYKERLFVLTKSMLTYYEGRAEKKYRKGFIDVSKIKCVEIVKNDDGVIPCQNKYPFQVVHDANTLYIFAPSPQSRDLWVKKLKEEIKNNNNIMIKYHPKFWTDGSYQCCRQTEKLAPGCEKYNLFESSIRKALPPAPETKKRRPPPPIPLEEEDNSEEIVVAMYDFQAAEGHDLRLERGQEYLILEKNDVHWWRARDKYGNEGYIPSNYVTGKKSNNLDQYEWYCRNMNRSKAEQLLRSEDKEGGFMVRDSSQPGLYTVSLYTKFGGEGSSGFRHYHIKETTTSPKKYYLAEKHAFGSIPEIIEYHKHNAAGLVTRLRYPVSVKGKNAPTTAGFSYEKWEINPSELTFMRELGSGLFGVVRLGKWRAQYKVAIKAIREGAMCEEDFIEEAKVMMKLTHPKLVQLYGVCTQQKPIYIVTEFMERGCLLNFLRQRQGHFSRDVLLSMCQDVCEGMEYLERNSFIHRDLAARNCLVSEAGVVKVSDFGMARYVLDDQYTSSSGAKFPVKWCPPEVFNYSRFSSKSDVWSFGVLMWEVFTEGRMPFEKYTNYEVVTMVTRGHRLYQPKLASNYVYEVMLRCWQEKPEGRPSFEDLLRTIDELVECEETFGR

ALK (human) = ALK (human) (UniProt Q9UM73)
MAPK10 (human) = MAPK10 (human) (UniProt P53779)
PRKG1 (human) = PRKG1 (human) (UniProt Q13976)
ACVR1 (human) = ACVR1 (human) (UniProt Q04771)
CLK3 (human) = CLK3 (human) (UniProt P49761)
NEK7 (human) = NEK7 (human) (UniProt Q8TDX7)
IRAK1 (human) = IRAK1 (human) (UniProt P51617)
PRKCH (human) = PRKCH (human) (UniProt P24723)
KIT (human) = KIT (human) (UniProt P10721)
FGFR4 (human) = FGFR4 (human) (UniProt P22455)
FGFR4 (human), sequence (P22455 whole entry, looked up): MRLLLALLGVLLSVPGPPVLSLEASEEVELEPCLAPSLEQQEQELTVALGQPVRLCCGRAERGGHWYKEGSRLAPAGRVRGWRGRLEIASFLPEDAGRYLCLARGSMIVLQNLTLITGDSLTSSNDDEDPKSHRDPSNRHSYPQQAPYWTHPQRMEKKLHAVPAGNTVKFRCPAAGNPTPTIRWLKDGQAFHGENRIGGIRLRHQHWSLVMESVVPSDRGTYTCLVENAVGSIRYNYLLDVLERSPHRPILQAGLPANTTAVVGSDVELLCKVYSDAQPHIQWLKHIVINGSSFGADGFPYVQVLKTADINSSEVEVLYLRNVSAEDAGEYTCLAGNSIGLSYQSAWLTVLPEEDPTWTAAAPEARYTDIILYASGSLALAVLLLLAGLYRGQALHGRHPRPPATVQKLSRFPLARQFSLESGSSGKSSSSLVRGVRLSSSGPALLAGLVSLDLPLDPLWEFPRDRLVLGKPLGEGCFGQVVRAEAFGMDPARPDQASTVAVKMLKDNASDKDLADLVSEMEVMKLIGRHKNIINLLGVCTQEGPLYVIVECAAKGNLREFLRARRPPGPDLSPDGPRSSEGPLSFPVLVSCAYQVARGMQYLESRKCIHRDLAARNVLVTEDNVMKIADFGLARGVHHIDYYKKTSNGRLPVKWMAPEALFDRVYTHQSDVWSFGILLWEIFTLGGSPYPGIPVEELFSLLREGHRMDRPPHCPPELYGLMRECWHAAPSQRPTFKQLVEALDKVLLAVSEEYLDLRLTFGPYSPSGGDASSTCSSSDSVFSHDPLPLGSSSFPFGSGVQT

CDK6 CCND1 (human) = CDK6 CCND1 (human) (UniProt Q00534+P24385)
CHUK (human) = CHUK (human) (UniProt O15111)
JAK3 JH1 JH2 (human) = JAK3 JH1 JH2 (human) (UniProt P52333)
PASK (human) = PASK (human) (UniProt Q96RG2)
NEK4 (human) = NEK4 (human) (UniProt P51957)
SRPK1 (human) = SRPK1 (human) (UniProt Q96SB4)
PRKCZ (human) = PRKCZ (human) (UniProt Q05513)
MST1R (human) = MST1R (human) (UniProt Q04912)
MAPK12 (human) = MAPK12 (human) (UniProt P53778)
MAPK12 (human), sequence (P53778 whole entry, looked up): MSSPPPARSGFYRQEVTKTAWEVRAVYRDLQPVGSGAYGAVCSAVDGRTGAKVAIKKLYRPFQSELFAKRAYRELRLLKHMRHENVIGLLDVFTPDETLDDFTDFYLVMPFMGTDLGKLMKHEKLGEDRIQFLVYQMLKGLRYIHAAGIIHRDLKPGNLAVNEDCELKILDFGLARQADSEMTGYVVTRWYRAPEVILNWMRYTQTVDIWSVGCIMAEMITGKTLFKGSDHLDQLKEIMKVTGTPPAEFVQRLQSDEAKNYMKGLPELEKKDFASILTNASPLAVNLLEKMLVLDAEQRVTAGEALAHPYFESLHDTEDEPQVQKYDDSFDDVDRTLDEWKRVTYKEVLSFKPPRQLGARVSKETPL

AURKC (human) = AURKC (human) (UniProt Q9UQB9)
AURKC (human), sequence (Q9UQB9 whole entry, looked up): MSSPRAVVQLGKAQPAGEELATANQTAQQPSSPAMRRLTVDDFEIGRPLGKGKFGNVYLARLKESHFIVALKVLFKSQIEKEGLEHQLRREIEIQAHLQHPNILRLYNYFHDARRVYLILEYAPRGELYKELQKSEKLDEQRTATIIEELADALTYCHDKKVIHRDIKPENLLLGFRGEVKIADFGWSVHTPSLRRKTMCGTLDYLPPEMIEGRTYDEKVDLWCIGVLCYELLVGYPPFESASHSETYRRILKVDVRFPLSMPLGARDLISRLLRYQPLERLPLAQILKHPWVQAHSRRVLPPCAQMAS

MAPK13 (human) = MAPK13 (human) (UniProt O15264)
MYLK (human) = MYLK (human) (UniProt Q15746)
ULK1 (human) = ULK1 (human) (UniProt O75385)
PRKCA (human) = PRKCA (human) (UniProt P17252)
RPS6KB1 (human) = RPS6KB1 (human) (UniProt P23443)
NEK6 (human) = NEK6 (human) (UniProt Q9HC98)
RPS6KA1 KD1 KD2 (human) = RPS6KA1 KD1 KD2 (human) (UniProt Q15418)
EPHA4 (human) = EPHA4 (human) (UniProt P54764)
MST4 (human) = MST4 (human) (UniProt Q9P289)
PIM3 (human) = PIM3 (human) (UniProt Q86V86)
NUAK2 (human) = NUAK2 (human) (UniProt Q9H093)
NUAK2 (human), sequence (Q9H093 whole entry, looked up): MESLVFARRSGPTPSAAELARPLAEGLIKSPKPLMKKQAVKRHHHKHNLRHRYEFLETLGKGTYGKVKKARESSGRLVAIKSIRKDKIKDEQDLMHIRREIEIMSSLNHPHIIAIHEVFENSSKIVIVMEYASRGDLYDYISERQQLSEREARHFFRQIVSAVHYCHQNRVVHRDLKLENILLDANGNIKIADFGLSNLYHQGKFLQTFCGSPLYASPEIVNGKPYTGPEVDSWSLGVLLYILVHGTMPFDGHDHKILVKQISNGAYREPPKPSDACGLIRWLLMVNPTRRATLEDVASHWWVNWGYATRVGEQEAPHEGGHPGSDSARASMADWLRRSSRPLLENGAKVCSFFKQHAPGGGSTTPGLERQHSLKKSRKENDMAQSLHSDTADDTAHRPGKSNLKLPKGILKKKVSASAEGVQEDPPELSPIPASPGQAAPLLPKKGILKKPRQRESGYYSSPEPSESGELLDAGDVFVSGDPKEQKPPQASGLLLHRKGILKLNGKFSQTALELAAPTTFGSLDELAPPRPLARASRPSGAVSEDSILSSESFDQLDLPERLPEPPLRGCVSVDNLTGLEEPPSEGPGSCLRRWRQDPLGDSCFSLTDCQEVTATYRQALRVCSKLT

ROCK1 (human), sequence (Q13464 whole entry, looked up): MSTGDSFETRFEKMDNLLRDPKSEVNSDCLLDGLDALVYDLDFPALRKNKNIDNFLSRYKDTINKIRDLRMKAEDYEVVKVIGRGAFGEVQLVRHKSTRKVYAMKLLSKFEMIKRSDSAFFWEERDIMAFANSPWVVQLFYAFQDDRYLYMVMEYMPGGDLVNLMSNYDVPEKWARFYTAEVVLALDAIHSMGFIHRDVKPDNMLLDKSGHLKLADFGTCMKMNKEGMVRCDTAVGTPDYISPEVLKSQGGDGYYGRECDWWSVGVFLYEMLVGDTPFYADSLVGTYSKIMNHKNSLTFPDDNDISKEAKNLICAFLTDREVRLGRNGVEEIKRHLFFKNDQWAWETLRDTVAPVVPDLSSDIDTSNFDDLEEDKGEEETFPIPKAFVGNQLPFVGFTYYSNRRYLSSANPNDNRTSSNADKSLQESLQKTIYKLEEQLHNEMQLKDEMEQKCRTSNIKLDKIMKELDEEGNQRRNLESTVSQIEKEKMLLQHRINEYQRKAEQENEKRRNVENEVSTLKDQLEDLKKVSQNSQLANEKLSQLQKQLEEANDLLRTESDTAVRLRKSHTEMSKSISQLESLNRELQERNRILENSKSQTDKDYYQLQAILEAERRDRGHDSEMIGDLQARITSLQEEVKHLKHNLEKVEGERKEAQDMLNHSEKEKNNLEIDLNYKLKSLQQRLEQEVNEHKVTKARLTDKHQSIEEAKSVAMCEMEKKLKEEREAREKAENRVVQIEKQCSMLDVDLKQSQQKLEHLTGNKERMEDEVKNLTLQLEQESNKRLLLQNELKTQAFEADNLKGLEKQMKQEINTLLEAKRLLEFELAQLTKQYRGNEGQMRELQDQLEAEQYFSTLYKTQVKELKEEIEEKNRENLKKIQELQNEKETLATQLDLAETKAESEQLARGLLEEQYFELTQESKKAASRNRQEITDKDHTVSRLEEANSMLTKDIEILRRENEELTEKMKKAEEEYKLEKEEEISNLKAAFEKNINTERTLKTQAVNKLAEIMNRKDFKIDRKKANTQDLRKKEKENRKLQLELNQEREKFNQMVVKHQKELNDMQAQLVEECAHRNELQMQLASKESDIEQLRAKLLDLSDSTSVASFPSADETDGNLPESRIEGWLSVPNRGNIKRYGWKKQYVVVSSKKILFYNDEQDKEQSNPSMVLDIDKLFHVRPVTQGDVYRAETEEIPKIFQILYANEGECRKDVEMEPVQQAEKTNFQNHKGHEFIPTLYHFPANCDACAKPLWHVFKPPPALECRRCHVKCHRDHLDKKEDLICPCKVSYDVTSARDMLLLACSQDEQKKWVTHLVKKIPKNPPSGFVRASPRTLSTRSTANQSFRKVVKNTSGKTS
MARK1 (human), sequence (Q9P0L2 whole entry, looked up): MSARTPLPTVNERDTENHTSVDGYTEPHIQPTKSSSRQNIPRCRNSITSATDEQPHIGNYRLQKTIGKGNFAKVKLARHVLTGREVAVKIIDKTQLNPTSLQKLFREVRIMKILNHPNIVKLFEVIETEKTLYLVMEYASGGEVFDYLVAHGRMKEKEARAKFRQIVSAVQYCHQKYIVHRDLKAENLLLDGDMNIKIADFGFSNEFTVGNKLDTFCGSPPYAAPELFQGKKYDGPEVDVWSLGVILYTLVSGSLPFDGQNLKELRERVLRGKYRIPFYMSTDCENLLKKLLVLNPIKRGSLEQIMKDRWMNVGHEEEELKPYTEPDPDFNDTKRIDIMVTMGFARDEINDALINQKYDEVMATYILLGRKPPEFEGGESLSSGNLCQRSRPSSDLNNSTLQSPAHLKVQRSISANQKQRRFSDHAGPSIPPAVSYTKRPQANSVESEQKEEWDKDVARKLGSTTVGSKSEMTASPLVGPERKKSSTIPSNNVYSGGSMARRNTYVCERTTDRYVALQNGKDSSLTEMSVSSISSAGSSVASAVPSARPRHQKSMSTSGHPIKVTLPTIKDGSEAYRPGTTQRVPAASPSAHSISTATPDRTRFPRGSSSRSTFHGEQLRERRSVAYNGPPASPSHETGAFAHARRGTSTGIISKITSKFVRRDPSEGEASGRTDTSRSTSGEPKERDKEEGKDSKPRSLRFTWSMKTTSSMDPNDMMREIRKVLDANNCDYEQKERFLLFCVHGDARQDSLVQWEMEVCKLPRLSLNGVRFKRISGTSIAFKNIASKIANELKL

Compound: CN(C)c1ccc(/C=C2\C(=O)Nc3ccccc32)cc1
- residual activity (ROCK1 (human)): 98.3%
- residual activity (MARK1 (human)): 97.3%
- residual activity (CHEK2 (human)): 91.6%
- residual activity (SGK2 (human)): 98.6%
- residual activity (MELK (human)): 89.3%
- residual activity (KDR (human)): 94.3%
- residual activity (RPS6KB2 (human)): 101%
- residual activity (MAPK1 (human)): 96.4%
- residual activity (ERBB2 (human)): 91%
- residual activity (PRKD2 (human)): 95.2%
- residual activity (TEC (human)): 103%
- residual activity (ALK (human)): 99.7%
- residual activity (MAPK10 (human)): 82.9%
- residual activity (PRKG1 (human)): 86.9% and 99.7%
- residual activity (ACVR1 (human)): 104%
- residual activity (CLK3 (human)): 89.4%
- residual activity (NEK7 (human)): 102%
- residual activity (IRAK1 (human)): 102%
- residual activity (PRKCH (human)): 92.3%
- residual activity (KIT (human)): 45.6%
- residual activity (FGFR4 (human)): 97.4%
- residual activity (CDK6 CCND1 (human)): 101%
- residual activity (CHUK (human)): 93.4%
- residual activity (JAK3 JH1 JH2 (human)): 113%
- residual activity (PASK (human)): 95%
- residual activity (NEK4 (human)): 102%
- residual activity (SRPK1 (human)): 95.4%
- residual activity (PRKCZ (human)): 112%
- residual activity (MST1R (human)): 106%
- residual activity (MAPK12 (human)): 102%
- residual activity (AURKC (human)): 91.1%
- residual activity (MAPK13 (human)): 97.1%
- residual activity (MYLK (human)): 90.5%
- residual activity (ULK1 (human)): 91.9%
- residual activity (PRKCA (human)): 94.5%
- residual activity (RPS6KB1 (human)): 97.1%
- residual activity (NEK6 (human)): 96.9%
- residual activity (RPS6KA1 KD1 KD2 (human)): 78.4%
- residual activity (EPHA4 (human)): 95.2%
- residual activity (MST4 (human)): 90.9%
- residual activity (PIM3 (human)): 102%
- residual activity (NUAK2 (human)): 94.3%

Compound: O=C(c1cc2cc(O)ccc2[nH]1)c1cc2cc(O)ccc2[nH]1
- residual activity (ROCK1 (human)): 96.2%
- residual activity (MARK1 (human)): 66.3%
- residual activity (CHEK2 (human)): 80.1%
- residual activity (SGK2 (human)): 94.3%
- residual activity (MELK (human)): 49.2%
- residual activity (KDR (human)): 69.9%
- residual activity (RPS6KB2 (human)): 102%
- residual activity (MAPK1 (human)): 113%
- residual activity (ERBB2 (human)): 113%
- residual activity (PRKD2 (human)): 71.7%
- residual activity (TEC (human)): 105%
- residual activity (ALK (human)): 97%
- residual activity (MAPK10 (human)): 91.6%
- residual activity (PRKG1 (human)): 84.3% and 90%
- residual activity (ACVR1 (human)): 123%
- residual activity (CLK3 (human)): 24.8%
- residual activity (NEK7 (human)): 101%
- residual activity (IRAK1 (human)): 98.1%
- residual activity (PRKCH (human)): 76.3%
- residual activity (KIT (human)): 45.6%
- residual activity (FGFR4 (human)): 92.8%
- residual activity (CDK6 CCND1 (human)): 81.2%
- residual activity (CHUK (human)): 103%
- residual activity (JAK3 JH1 JH2 (human)): 94.5%
- residual activity (PASK (human)): 78.7%
- residual activity (NEK4 (human)): 87.6%
- residual activity (SRPK1 (human)): 92.2%
- residual activity (MST1R (human)): 90.4%
- residual activity (MAPK12 (human)): 97.9%
- residual activity (AURKC (human)): 83.2%
- residual activity (MAPK13 (human)): 108%
- residual activity (MYLK (human)): 91.4%
- residual activity (ULK1 (human)): 60.1%
- residual activity (PRKCA (human)): 84.1%
- residual activity (RPS6KB1 (human)): 85%
- residual activity (NEK6 (human)): 99.6%
- residual activity (RPS6KA1 KD1 KD2 (human)): 30.1%
- residual activity (EPHA4 (human)): 109%
- residual activity (MST4 (human)): 101%
- residual activity (PIM3 (human)): 98.9%
- residual activity (NUAK2 (human)): 95.7%

Compound: CS(=O)(=O)CCNCc1ccc(-c2ccc3ncnc(Nc4ccc(OCc5cccc(F)c5)c(Cl)c4)c3c2)o1
- residual activity (ROCK1 (human)): 108%
- residual activity (MARK1 (human)): 149%
- residual activity (CHEK2 (human)): 96.8%
- residual activity (SGK2 (human)): 106%
- residual activity (MELK (human)): 88.5%
- residual activity (KDR (human)): 96.6%
- residual activity (RPS6KB2 (human)): 100%
- residual activity (MAPK1 (human)): 102%
- residual activity (PRKD2 (human)): 86.4%
- residual activity (TEC (human)): 101%
- residual activity (ALK (human)): 104%
- residual activity (MAPK10 (human)): 100%
- residual activity (PRKG1 (human)): 95.4% and 99.7%
- residual activity (ACVR1 (human)): 106%
- residual activity (CLK3 (human)): 107%
- residual activity (NEK7 (human)): 98.7%
- residual activity (IRAK1 (human)): 98.8%
- residual activity (PRKCH (human)): 110%
- residual activity (KIT (human)): 98.4%
- residual activity (FGFR4 (human)): 96.6%
- residual activity (CDK6 CCND1 (human)): 100%
- residual activity (CHUK (human)): 99.5%
- residual activity (JAK3 JH1 JH2 (human)): 96.2%
- residual activity (PASK (human)): 101%
- residual activity (NEK4 (human)): 98.1%
- residual activity (SRPK1 (human)): 100%
- residual activity (PRKCZ (human)): 79.7%
- residual activity (MST1R (human)): 92.2%
- residual activity (MAPK12 (human)): 95%
- residual activity (AURKC (human)): 90.9%
- residual activity (MAPK13 (human)): 91.1%
- residual activity (MYLK (human)): 90.7%
- residual activity (ULK1 (human)): 95.4%
- residual activity (PRKCA (human)): 83%
- residual activity (RPS6KB1 (human)): 95.7%
- residual activity (NEK6 (human)): 93.7%
- residual activity (RPS6KA1 KD1 KD2 (human)): 105%
- residual activity (EPHA4 (human)): 101%
- residual activity (MST4 (human)): 110%
- residual activity (PIM3 (human)): 93.7%
- residual activity (NUAK2 (human)): 95.1%
